# Reference: the supplement of paper PMC10307832
# Key:
# Test in all cases: relative viability (nuclei count vs DMSO), 5 days (fraction); higher = more cells survive
# [1] = compound: COC1=CC=C(C=C1)CN2C=CC3=C2C=C(C=C3)C(=O)NO
# Method in brief: (§1)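 After an overnight hold at 37 °C, lung cancer cell lines in 1536-well plates were pinned with five library-drug doses (not always all listed), each √10 from the next, on vehicle-anchored plates. The cells stayed 5 days without fresh medium, then a one-step fix, permeabilisation and Hoechst stain preceded 4× imaging and MetaXpress nuclear counts. A plate passed only with control CV under 25% and at least one doubling. Viability is the median, over plates, of treated-well nuclei relative to vehicle-well nuclei.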
# [2] = compound: C[C@]1(c2nc3c(C(N)=O)cccc3[nH]2)CCCN1 [Veliparib]
# Method in brief: as §1
# [3] = compound: COC1=CC=C(C=C1)CN2C=CC3=C2C=C(C=C3)C(=O)NO + Cc1nc(NC(=O)N2CCC[C@H]2C(N)=O)sc1-c1ccnc(C(C)(C)C(F)(F)F)c1 [Alpelisib] (partner 2 µM)
# Method in brief: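 After 5 days of treatment, lung cancer cells in 1536-well plates were fixed and stained in a single step (final 0.05% Triton X-100, 1% formaldehyde, 1 ug/ml Hoechst) and their nuclei counted on 4× images. Treatment had been applied by pin tool the day after seeding as one drug alone or as a fixed anchor-drug dose with five library-drug doses (not always all listed) in √10 steps. Relative viability is the nuclei count of treated wells divided by that of vehicle wells, and values are medians of duplicate plates.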
cell line,measurement,setting,value
SW 1573,relative viability,[1]; 0.253 µM,1.05
same,relative viability,[1]; 0.8 µM,1.09
same,relative viability,[1]; 2.53 µM,1.06
same,relative viability,[1]; 8 µM,0.759
same,relative viability,[2]; 0.02 µM,0.857
same,relative viability,[2]; 0.06325 µM,0.978
same,relative viability,[2]; 0.2 µM,0.917
same,relative viability,[2]; 0.6325 µM,0.885
same,relative viability,[2]; 2 µM,0.922
same,relative viability,[3]; first compound 0.253 µM,0.824
same,relative viability,[3]; first compound 0.8 µM,0.734
same,relative viability,[3]; first compound 2.53 µM,0.72
same,relative viability,[3]; first compound 8 µM,0.787
